# Reference: publication PMC5751233, “Characterization of the Asiatic Acid Glucosyltransferase, UGT73AH1, Involved in Asiaticoside Biosynthesis in Centella asiatica (L.) Urban” (International Journal of Molecular Sciences, 2017)
# Target: T1, UGT73AH1 (Centella asiatica, UniProt A0A2I7M6C4)
# T1 construct: full-length ORF with stop codon, untagged, 501 residues; expressed in E. coli BL21 (DE3), soluble total protein extract
# T1 sequence (A0A2I7M6C4 1-501): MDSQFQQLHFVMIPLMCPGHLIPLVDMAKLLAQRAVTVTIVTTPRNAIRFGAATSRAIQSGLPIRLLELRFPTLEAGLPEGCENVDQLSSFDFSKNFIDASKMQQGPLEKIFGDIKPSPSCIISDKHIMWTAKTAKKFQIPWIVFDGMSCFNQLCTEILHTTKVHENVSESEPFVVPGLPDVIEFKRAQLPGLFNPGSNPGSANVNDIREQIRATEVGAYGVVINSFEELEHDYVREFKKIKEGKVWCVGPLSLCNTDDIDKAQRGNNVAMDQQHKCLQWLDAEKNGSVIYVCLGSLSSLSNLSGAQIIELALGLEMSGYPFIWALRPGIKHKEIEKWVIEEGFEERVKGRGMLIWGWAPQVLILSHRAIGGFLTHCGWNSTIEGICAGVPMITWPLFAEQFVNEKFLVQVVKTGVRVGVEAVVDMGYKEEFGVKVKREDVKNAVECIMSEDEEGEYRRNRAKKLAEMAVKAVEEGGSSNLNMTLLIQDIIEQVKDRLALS
# Experiment: UPLC-QTOF/MS detection of monoglucoside product
# Type: biochemical
# Conditions: 5 mM UDP-glucose, 0.5 mM asiatic acid, 50 mM Tris-HCl pH 8.5, 35 °C, 4 h; E. coli total protein extract; boiled-protein control
smiles,measurement,value
C[C@H]1[C@H](C)CC[C@]2(C(=O)O)CC[C@]3(C)C(=CC[C@@H]4[C@@]5(C)C[C@@H](O)[C@H](O)[C@@](C)(CO)[C@@H]5CC[C@]43C)[C@H]12 [asiatic acid],UPLC-QTOF/MS detection of monoglucoside product,our results show that UGT73AH1 catalyzes the glycosylation of asiatic acid
